Experiment: xn = mol fraction of the nth substance listed
Details: 100 kPa, Liquid, Vibrating tube method

CNC(N)=O [methylurea] + O
Details	mass density [kg/m3]
274.15 K, x1 = 0.00244	1001.77
274.15 K, x1 = 0.00291	1002.12
274.15 K, x1 = 0.00483	1003.58
274.15 K, x1 = 0.00553	1004.11
274.15 K, x1 = 0.00799	1005.96
274.15 K, x1 = 0.00834	1006.21
274.15 K, x1 = 0.01081	1008.05
274.15 K, x1 = 0.01421	1010.56
275.15 K, x1 = 0.00244	1001.8
275.15 K, x1 = 0.00291	1002.15
275.15 K, x1 = 0.00483	1003.6
275.15 K, x1 = 0.00553	1004.13
275.15 K, x1 = 0.00799	1005.98
275.15 K, x1 = 0.00834	1006.23
275.15 K, x1 = 0.01081	1008.07
275.15 K, x1 = 0.01421	1010.58
276.15 K, x1 = 0.00244	1001.82
276.15 K, x1 = 0.00291	1002.17
276.15 K, x1 = 0.00483	1003.62
276.15 K, x1 = 0.00553	1004.14
276.15 K, x1 = 0.00799	1005.98
276.15 K, x1 = 0.00834	1006.24
276.15 K, x1 = 0.01081	1008.06
276.15 K, x1 = 0.01421	1010.58
277.15 K, x1 = 0.00244	1001.82
277.15 K, x1 = 0.00291	1002.17
277.15 K, x1 = 0.00483	1003.61
277.15 K, x1 = 0.00553	1004.13
277.15 K, x1 = 0.00799	1005.97
277.15 K, x1 = 0.00834	1006.23
277.15 K, x1 = 0.01081	1008.05
277.15 K, x1 = 0.01421	1010.54
278.15 K, x1 = 0.00244	1001.8
278.15 K, x1 = 0.00291	1002.15
278.15 K, x1 = 0.00483	1003.58
278.15 K, x1 = 0.00553	1004.1
278.15 K, x1 = 0.00799	1005.92
278.15 K, x1 = 0.00834	1006.18
278.15 K, x1 = 0.01081	1007.99
278.15 K, x1 = 0.01421	1010.45
278.15 K, x1 = 0.01662	1012.18
278.15 K, x1 = 0.019	1013.89
278.15 K, x1 = 0.02321	1016.84
278.15 K, x1 = 0.03185	1022.7
278.15 K, x1 = 0.04218	1029.47
278.15 K, x1 = 0.05184	1035.47
278.15 K, x1 = 0.06068	1040.78
278.15 K, x1 = 0.07071	1046.57
279.15 K, x1 = 0.00244	1001.76
279.15 K, x1 = 0.00291	1002.11
279.15 K, x1 = 0.00483	1003.53
279.15 K, x1 = 0.00553	1004.05
279.15 K, x1 = 0.00799	1005.86
279.15 K, x1 = 0.00834	1006.11
279.15 K, x1 = 0.01081	1007.92
279.15 K, x1 = 0.01421	1010.37
280.15 K, x1 = 0.00244	1001.71
280.15 K, x1 = 0.00291	1002.05
280.15 K, x1 = 0.00483	1003.47
280.15 K, x1 = 0.00553	1003.98
280.15 K, x1 = 0.00799	1005.78
280.15 K, x1 = 0.00834	1006.03
280.15 K, x1 = 0.01081	1007.83
280.15 K, x1 = 0.01421	1010.26
281.15 K, x1 = 0.00244	1001.65
281.15 K, x1 = 0.00291	1001.99
281.15 K, x1 = 0.00483	1003.39
281.15 K, x1 = 0.00553	1003.9
281.15 K, x1 = 0.00799	1005.7
281.15 K, x1 = 0.00834	1005.95
281.15 K, x1 = 0.01081	1007.72
281.15 K, x1 = 0.01421	1010.15
282.15 K, x1 = 0.00244	1001.57
282.15 K, x1 = 0.00291	1001.91
282.15 K, x1 = 0.00483	1003.31
282.15 K, x1 = 0.00553	1003.81
282.15 K, x1 = 0.00799	1005.59
282.15 K, x1 = 0.00834	1005.84
282.15 K, x1 = 0.01081	1007.61
282.15 K, x1 = 0.01421	1010.02
283.15 K, x1 = 0.00244	1001.47
283.15 K, x1 = 0.00291	1001.81
283.15 K, x1 = 0.00483	1003.2
283.15 K, x1 = 0.00553	1003.71
283.15 K, x1 = 0.00799	1005.48
283.15 K, x1 = 0.00834	1005.72
283.15 K, x1 = 0.01081	1007.48
283.15 K, x1 = 0.01421	1009.88
288.15 K, x1 = 0.00244	1000.82
288.15 K, x1 = 0.00291	1001.15
288.15 K, x1 = 0.00483	1002.51
288.15 K, x1 = 0.00553	1003
288.15 K, x1 = 0.00799	1004.72
288.15 K, x1 = 0.00834	1004.96
288.15 K, x1 = 0.01081	1006.67
288.15 K, x1 = 0.01421	1009.02
288.15 K, x1 = 0.01662	1010.63
288.15 K, x1 = 0.019	1012.22
288.15 K, x1 = 0.02321	1015
288.15 K, x1 = 0.03185	1020.53
288.15 K, x1 = 0.04218	1026.9
288.15 K, x1 = 0.05184	1032.59
288.15 K, x1 = 0.06068	1037.58
288.15 K, x1 = 0.07071	1043.01
298.15 K, x1 = 0.00244	998.69
298.15 K, x1 = 0.00291	999
298.15 K, x1 = 0.00483	1000.3
298.15 K, x1 = 0.00553	1000.76
298.15 K, x1 = 0.00799	1002.41
298.15 K, x1 = 0.00834	1002.63
298.15 K, x1 = 0.01081	1004.26
298.15 K, x1 = 0.01421	1006.48
298.15 K, x1 = 0.01662	1008.05
298.15 K, x1 = 0.019	1009.57
298.15 K, x1 = 0.02321	1012.2
298.15 K, x1 = 0.03185	1017.45
298.15 K, x1 = 0.04218	1023.52
298.15 K, x1 = 0.05184	1028.96
298.15 K, x1 = 0.06068	1033.74
298.15 K, x1 = 0.07071	1038.96
308.15 K, x1 = 0.00244	995.62
308.15 K, x1 = 0.00291	995.92
308.15 K, x1 = 0.00483	997.16
308.15 K, x1 = 0.00553	997.61
308.15 K, x1 = 0.00799	999.19
308.15 K, x1 = 0.00834	999.41
308.15 K, x1 = 0.01081	1000.97
308.15 K, x1 = 0.01421	1003.1
308.15 K, x1 = 0.01662	1004.61
308.15 K, x1 = 0.019	1006.07
308.15 K, x1 = 0.02321	1008.61
308.15 K, x1 = 0.03185	1013.65
308.15 K, x1 = 0.04218	1019.45
308.15 K, x1 = 0.05184	1024.66
308.15 K, x1 = 0.06068	1029.26
308.15 K, x1 = 0.07071	1034.27
323.15 K, x1 = 0.00244	989.55
323.15 K, x1 = 0.00291	989.84
323.15 K, x1 = 0.00483	991.02
323.15 K, x1 = 0.00553	991.45
323.15 K, x1 = 0.00799	992.95
323.15 K, x1 = 0.00834	993.16
323.15 K, x1 = 0.01081	994.63
323.15 K, x1 = 0.01421	996.66
323.15 K, x1 = 0.01662	998.09
323.15 K, x1 = 0.019	999.47
323.15 K, x1 = 0.02321	1001.87
323.15 K, x1 = 0.03185	1006.67
323.15 K, x1 = 0.04218	1012.19
323.15 K, x1 = 0.05184	1017.13
323.15 K, x1 = 0.06068	1021.48
323.15 K, x1 = 0.07071	1026.24
333.15 K, x1 = 0.00244	984.67
333.15 K, x1 = 0.00291	984.95
333.15 K, x1 = 0.00483	986.09
333.15 K, x1 = 0.00553	986.51
333.15 K, x1 = 0.00799	987.96
333.15 K, x1 = 0.00834	988.16
333.15 K, x1 = 0.01081	989.6
333.15 K, x1 = 0.01421	991.56
333.15 K, x1 = 0.01662	992.96
333.15 K, x1 = 0.019	994.26
333.15 K, x1 = 0.02321	996.6
333.15 K, x1 = 0.03185	1001.3
333.15 K, x1 = 0.04218	1006.7
333.15 K, x1 = 0.05184	1011.49
333.15 K, x1 = 0.06068	1015.72
333.15 K, x1 = 0.07071	1020.32
